{"source": "patent US11813239B2", "about": "“Compositions and methods for improving cardiac structure and/or function” (Wisconsin Alumni Research Foundation, priority 2020, dated 2023)", "key": {"[1]": {"system": "tricarboxylic acid (TCA) cycle and glucose metabolism", "assay": "LC-MS metabolite analysis of adult hearts", "experimental": "Saline was used as a vehicle control for all experiments. […] Adult mice were injected intraperitoneally daily with either saline or 100 mg/kg dimethyl malonate post-MI for 2 or 4 weeks.\nTo analyze intracellular metabolites, metabolites were extracted with cold liquid chromatography-mass spectrometry (LC-MS) grade 3/1 butanol/methanol (v/v). The methanol layer was transferred to a new vial and samples were dried under nitrogen flow and subsequently dissolved in LC-MS grade water for LC-MS analysis methods. Protein pellets were removed by centrifugation. Samples were analyzed using a Thermo Q-Exactive mass spectrometer coupled to a Vanquish Horizon Ultra-High Performance Liquid Chromatograph (UHPLC). Metabolites were separated on a C18 (details below) at a 0.2 ml per min flow rate and 30° C. column temperature. […] The identification of metabolites reported was based on exact m/z and retention times, which were determined with chemical standards. Data were analyzed with Maven. Relative metabolite levels were normalized to internal standard Tryptophan (^13C11) and expressed relative to levels measured in the control group.\nTo determine whether SDH inhibition regulates cardiomyocyte cell cycle activity by modulating succinate levels, we measured the levels of intracellular succinate by liquid chromatography-mass spectrometry (LC-MS). […]"}, "adult cardiomyocytes": {"system": "adult cardiomyocytes", "assay": "Histology after adult MI (TTC, TUNEL, pH3, Aurora B, BrdU, nucleation, γH2AX, trichrome, WGA, coronary casting, PECAM/α-SMA)", "assay_type": "in vivo, mouse"}, "[2]": {"settings": "dimethyl malonate 100 mg/kg daily for 2 weeks, 28 days post-MI"}, "[3]": {"settings": "dimethyl malonate 100 mg/kg daily for 2 weeks, 28 days post-MI, vs controls"}, "[4]": {"settings": "dimethyl malonate 100 mg/kg daily, 14 days post-MI"}}, "note": "Entries after “also recorded” stand apart in the source; their conditions may differ."}
{"smiles": "COC(=O)CC(=O)OC", "note": "[Malonate, dimethyl malonate]", "values": [{"measurement": "intracellular succinate levels in the heart (LC-MS)", "setting": "[1]; adult MI, dimethyl malonate 100 mg/kg daily, 14 days post-MI", "result": "significant increase in succinate levels"}, {"measurement": "succinate levels (LC-MS metabolomics)", "setting": "[1]; adult mice treated for 2 weeks with dimethyl malonate, vs saline", "result": "increase in succinate levels"}, {"measurement": "fibrosis (trichrome staining, quantification)", "setting": "adult cardiomyocytes; dimethyl malonate 100 mg/kg daily for 2 weeks, 14 days post-MI, vs controls, difference was not significant", "result": "trend for reduction in fibrosis"}, {"measurement": "capillary density and vascular smooth muscle cells in the infarct zone (PECAM, α-SMA)", "setting": "adult cardiomyocytes; [2]", "result": "significant increase in capillary density and vascular smooth muscle cells"}, {"measurement": "scar size (quantification of fibrosis)", "setting": "adult cardiomyocytes; [2]", "result": "significant reduction of scar size"}, {"measurement": "cardiomyocyte size (WGA staining)", "setting": "adult cardiomyocytes; [3]", "result": "significant reduction in cardiomyocyte size"}, {"measurement": "coronary artery formation / revascularization of the infarct zone (coronary casting)", "setting": "adult cardiomyocytes; [3]", "result": "Re-vascularization in the infarcted zone was also induced; also recorded: remarkable formation of coronary arteries below the ligature site"}, {"measurement": "heart weight to body weight ratios", "setting": "adult cardiomyocytes; dimethyl malonate 100 mg/kg daily for 2 weeks, 28 days post-MI, vs saline", "result": "No significant differences"}, {"measurement": "cardiac structure (trichrome staining)", "setting": "adult cardiomyocytes; dimethyl malonate 100 mg/kg daily for 2 weeks, 28 days post-MI, vs saline controls", "result": "complete restoration of the myocardium with minimal fibrosis; also recorded: remarkable restoration of the myocardium with minimal fibrosis"}, {"measurement": "number of apoptotic cardiomyocytes (TUNEL staining)", "setting": "adult cardiomyocytes; dimethyl malonate 100 mg/kg daily, 3- or 7-days post-MI, vs saline", "result": "no difference in the number of apoptotic cardiomyocytes"}, {"measurement": "BrdU incorporation in cardiomyocytes", "setting": "adult cardiomyocytes; [4]", "result": "significant increase in 5-bromodeoxyuridine (BrdU) incorporation"}, {"measurement": "number of binucleated cardiomyocytes", "setting": "adult cardiomyocytes; [4]", "result": "significant decrease in the number of binucleated cardiomyocytes"}, {"measurement": "number of mononucleated cardiomyocytes", "setting": "adult cardiomyocytes; [4]", "result": "remarkable increase in the number of mononucleated cardiomyocytes"}, {"measurement": "cardiomyocytes with γH2AX foci (DNA damage)", "setting": "adult cardiomyocytes; dimethyl malonate 100 mg/kg daily, vs controls", "result": "significant decrease in the number of cardiomyocytes with γH2AX foci"}, {"measurement": "non-viable myocardium, myocardial necrosis (TTC viability stain)", "setting": "adult cardiomyocytes; dimethyl malonate 100 mg/kg from within an hour post-MI, daily, 3 days post-MI, vs saline", "result": "no significant difference"}, {"measurement": "gross morphology of the heart", "setting": "adult cardiomyocytes; dimethyl malonate 100 mg/kg intraperitoneally for two weeks, 28 days post-MI, vs controls", "result": "more muscularized ventricle"}, {"measurement": "vascular density in the infarct zone (MICROFIL casting, ImageJ region of interest)", "setting": "adult cardiomyocytes; malonate, 28 days post-MI, vs controls", "result": "significant increase in vascular density in the infarct zone"}]}
